Assay results from US6693081B2, “Bone stimulating factor” (Osteopharm Inc., priority 1995, dated 2004).
Entries after “also recorded” stand apart in the source; their conditions may differ.

Experiments:
male Sprague-Dawley rats [1] = test: Bone mineral apposition rate in rats, second set of experiments (NAP-2V subsequences); format: in vivo, rat; conditions: for Group arithmetic mean of bone apposition rate: about 25 nmol injected in right thigh, male Sprague-Dawley rats, N=3-4, control 1.08
Experimental: In a second set of experiments, twenty-four male Sprague-Dawley rats (Charles River Laboratory) were divided into six groups of four. Each of the first group, the control group, was injected in the right thigh with 200 μl of 0.1% acetic acid solution. The rats of the other groups were each injected in the right thigh with about 200 μl of a 0.1% acetic acid solution containing about 25 nmol of a chemically synthesized polypeptide as follows:
Immediately after injection of the polypeptide (control) solution, each rat was injected in the right gluteus maximus with 200 μl of a 1 M tetracycline hydrochloride (Sigma Chemical) solution. This dosage of tetracycline is about 16 mg per kg of animal body weight.
About 48 hours later, each rat was injected in the left gluteus maximus with the same dosage of tetracycline. Twenty-four hours later, the rats were sacrificed by CO2 narcosis and the right femur taken for bone mineral apposition rate determination. One rat died during the course of the experiments.
Immediately after dissection, a bone sample was fixed in 10% formaldehyde solution at pH 7.4. Later the same day, a 1:1 H2O-acetone solution was exchanged for the formaldehyde solution. This was exchanged twice the following day with acetone. This was exchanged the following day by a 1:1 acetone-Spurr's medium solution, which was exchanged later the same day with Spurr's medium. The following day each sample was embedded in a fresh change of Spurr's medium and cured at 60° C. for 24 hours, followed by curing at 80° C. for 24 hours.
Each cured block was cut into 400 μm thick sections using a Leitz saw microtome equipped with a diamond charged blade. The relatively thick sections were ground down between two ground glass plates pre-roughened with carborundum powder to a final thickness of about 10 μm, water being used as the grinding lubricant. The thin sections were dried and mounted unstained in Permount (Fisher).
Measurements were made using a Leitz scanning light microscope photometer MPV-CD magnifying the sections 16×, as described in international patent application No. PCT/CA94/00144.

[2] = tested on: female Sprague-Dawley rats; test: Bone mineral apposition rate in rats, third set of experiments (protected polypeptides); format: in vivo, rat; conditions: 100 nmoles; for Group arithmetic mean of bone apposition rate: female Sprague-Dawley rats, N=3, control 1.256; for Bone stimulatory activity (in words): rats
Experimental: The polypeptide having the sequence identified as SEQ ID NO:12 has two sites susceptible to cleavage by the peptidase plasmin, between the lysine-threonine and the lysine-asparagine residues, respectively. In a third set of experiments, nine female Sprague-Dawley rats (average weight, about 300 gm) were divided into three groups of three. Each of the first group, the control group, was injected with 400 μl of buffer solution, 50 mM sodium acetate adjusted to pH 4.5 followed immediately by 200 μl of a 1M tetracycline hydrochloride solution. The rats of the second group were each injected with 400 μl of buffer containing 100 nmoles of a chemically synthesized polypeptide having the sequence identified as SEQ ID NO:17 followed immediately by 200 μl of a 1 M tetracycline hydrochloride solution. The rats of the third group were each injected with 400 μl of buffer containing 100 nmoles of a chemically synthesized polypeptide having the sequence identified as SEQ ID NO:18 followed immediately by 200 μl of a 1M tetracycline hydrochloride solution.
After about 48 hours, a second dose of tetracycline hydrochloride was administered to each rat. After about another 24 hours, rats were sacrificed by carbon dioxide narcosis.
The right femur of each animal was taken and treated, as described above, and measurements made as described above.

[3] = tested on: female Sprague-Dawley rats; test: Dose dependence of bone mineral apposition rate in rats, fourth set of experiments; format: in vivo, rat; conditions: N=4, control 1.320
Experimental: In a fourth set of experiments, dose dependence of the measured bone mineral apposition rate on the amount of polypeptide having SEQ ID NO:18 was evaluated. Twenty-eight female Sprague-Dawley rats (average weight, about 300 gm) were divided into seven groups of four. The rats were treated as described in the previous set of experiments except that the amount of test polypeptide varied as follows: 25, 50, 100, 200, 400 and 800 nmoles.

male Sprague-Dawley rats [4] = test: Bone mineral apposition rate in rats, first experiments (NAP-2, NAP-2V); format: in vivo, rat; conditions: 25 nmol; for Bone stimulatory effect (in words): rats; for Group arithmetic mean of bone apposition rate: subcutaneous injection, male Sprague-Dawley rats, N=5, right femur lower metaphysis, control 0.99
Experimental: Experiments were conducted simultaneously on three groups of male Sprague-Dawley rats, there being five rats in each group. Each rat weighed between 250 and 350 g. Each rat of the first group was given, by subcutaneous injection into the left gluteus maximus region, 200 μl of a 1% aqueous acetic acid solution containing 25 nmol (about 191 μg) of NAP-2 (SEQ ID NO:1). Each rat of the second group was similarly given 200 μl of a 1% aqueous acetic acid solution containing 25 nmol (about 207 μg) of NAP-2V (SEQ ID NO:2). Each rat of the third group, the control group, was similarly given 200 μl of 1% acetic acid solution.
Immediately following administration of the test solution, 300 μl of an aqueous solution of tetracycline hydrochloride was administered intramuscularly into the right gluteus maximus, the concentration of tetracycline being sufficient to obtain a dosage of about 24 mg/kg of rat body weight. A second dose of tetracycline hydrochloride solution was administered about 48 hours after the first dose. The rats were sacrificed about 24 hours after administration of the second dose of tetracycline.
Sections of the lower metaphysis of the right femur were used for bone measuring the bone mineral apposition rate. Processing of the bone material for measurement has been described previously. See, for example, international patent application No. PCT/CA 94/00144 published under No. WO 94/20615 on Sep. 15, 1994.

G-292 = G-292 osteoblastic osteosarcoma cell line; U.S. Pat. No. 5,304,542; cited from earlier work
Saos-2 = Saos-2 osteoblastic osteosarcoma cell line; U.S. Pat. No. 5,304,542; cited from earlier work

NAP-2V-(12-26) (CIKTTSGIHPKNIQS; OTHER INFORMATION: Description of Artificial Sequence: Chemically synthesized polypeptide) [SEQ ID NO: 15, Cys Ile Lys Thr Thr Ser Gly Ile His Pro Lys Asn Ile Gln Ser]
Group arithmetic mean of bone apposition rate (male Sprague-Dawley rats [1]): 1.04 μm per day
Effect on observed bone (mineral) apposition rate (in words) (male Sprague-Dawley rats [1]; about 25 nmol, rats, listed as 15): do not appear to enhance bone growth
Effect on observed bone (mineral) apposition rate (in words) (male Sprague-Dawley rats [1]; about 25 nmol, rats, listed as NAP-2V-(12-26)): no effect

SEQ ID NO: 17: Protected NAP-2V-(13-26; gln^25→glu^25): Xaa Lys Thr Thr Ser Gly Ile His Pro Lys Asn Ile Glu Xaa; N-acetyl isoleucine, serinamide (Ac-IKTTSGIHPKNIES-NH2; also: protecting groups)
Group arithmetic mean of bone apposition rate [2]: 1.859 μm/d
Bone stimulatory activity (in words) [2]: bond stimulatory activity

NAP-2V-(1-26) (DSDLYAELRCMCIKTTSGIHPKNIQS; OTHER INFORMATION: Description of Artificial Sequence: Chemically synthesized polypeptide) [SEQ ID NO: 11]
Group arithmetic mean of bone apposition rate (male Sprague-Dawley rats [1]): 1.47 μm per day
Effect on observed bone (mineral) apposition rate (in words) (male Sprague-Dawley rats [1]; about 25 nmol, rats): stimulate bone growth; also recorded: increase the observed bone apposition rate

NAP-2V-(13-26; gln^25→ glu^25) (IKTTSGIHPKNIES; OTHER INFORMATION: Description of Artificial Sequence: Chemically synthesized polypeptide) [SEQ ID NO: 12, Ile Lys Thr Thr Ser Gly Ile His Pro Lys Asn Ile Glu Ser]
Group arithmetic mean of bone apposition rate (male Sprague-Dawley rats [1]): 1.70 μm per day
Effect on observed bone (mineral) apposition rate (in words) (male Sprague-Dawley rats [1]; about 25 nmol, rats; gln^25→glu^25)): stimulate bone growth; also recorded: greater activity; also recorded: increase the observed bone apposition rate

SEQ ID NO: 18: Protected NAP-2V-(15-22): Xaa Thr Ser Gly Ile His Pro Xaa; Xaa1 N-acetyl threonine, Xaa8 lysinamide (Ac-TTSGIHPK-NH2; also: protecting groups)
Group arithmetic mean of bone apposition rate [2]: 2.406 μm/d
Bone stimulatory activity (in words) [2]: greater bone stimulatory activity; also recorded: bond stimulatory activity
Bone apposition rate, mean ([3]; 25 nmol): 1.686 μm/day
Bone apposition rate, mean ([3]; 50 nmol): 1.753 μm/day
Bone apposition rate, mean ([3]; 100 nmol): 1.907 μm/day
Bone apposition rate, mean ([3]; 200 nmol): 2.209 μm/day
Bone apposition rate, mean ([3]; 400 nmol): 2.123 μm/day
Bone apposition rate, mean ([3]; 800 nmol): 2.139 μm/day

NAP-2V-(11-26) (MCIKTTSQIHPKNIQS; OTHER INFORMATION: Description of Artificial Sequence: Chemically synthesized polypeptide) [SEQ ID NO: 14, Met Cys Ile Lys Thr Thr Ser Gln Ile His Pro Lys Asn Ile Gln Ser]
Group arithmetic mean of bone apposition rate (male Sprague-Dawley rats [1]): 1.07 μm per day
Effect on observed bone (mineral) apposition rate (in words) (male Sprague-Dawley rats [1]; about 25 nmol, rats, listed as 14): do not appear to enhance bone growth
Effect on observed bone (mineral) apposition rate (in words) (male Sprague-Dawley rats [1]; about 25 nmol, rats, listed as NAP-2V-(11-26)): no effect

NAP-2V-(10-26) (CMCIKTTSGIHPKNIQS; OTHER INFORMATION: Description of Artificial Sequence: Chemically synthesized polypeptide) [SEQ ID NO: 13, Cys Met Cys Ile Lys Thr Thr Ser Gly Ile His Pro Lys Asn Ile Gln Ser]
Group arithmetic mean of bone apposition rate (male Sprague-Dawley rats [1]): 1.18 μm per day
Effect on observed bone (mineral) apposition rate (in words) (male Sprague-Dawley rats [1]; about 25 nmol, rats): small increase

B1: NAP-2 (peptide)
chain: AELRCMCIKTTSGIHPKNIQSLEVIGKGTHCNQVEVIATLKDGRKICLDPDAPRIKKIVQKKLAGDESAD
modifications: OTHER INFORMATION: Description of Artificial Sequence: Chemically synthesized polypeptide
Bone stimulatory effect (in words) (male Sprague-Dawley rats [4]): bone stimulatory effects
Bone stimulatory effect (in words) (male Sprague-Dawley rats [4]; listed as SEQ ID NO:1): stimulate bone growth
Group arithmetic mean of bone apposition rate (male Sprague-Dawley rats [4]): 1.23 μm/d

B2: Platelet factor 4 (protein)
chain: EAEEDGDLQCLCVKTTSQVRPRHITSLEVIKAQPHCPTAQLIATLKNGRKICLDLEAPLYKKIIKKLLES
modifications: OTHER INFORMATION: Description of Artificial Sequence: Chemically synthesized polypeptide
notes: seventy amino acid polypeptide
Effect on cell proliferation (in words) (G-292): inhibit proliferation
Effect on cell proliferation (in words) (Saos-2): inhibit proliferation

B3: NAP-2V (peptide)
chain: DSDLYAELRCMCIKTTSGIHPKNIQSLEVIGKGTHCNQVEVIATLKDGRKICLDPDAPRIKKIVQKKLAGDESAD
modifications: OTHER INFORMATION: Description of Artificial Sequence: Chemically synthesized polypeptide
notes: variant of NAP-2, 75 amino acids, chemically synthesized polypeptide
Bone stimulatory effect (in words) (male Sprague-Dawley rats [4]): bone stimulatory effects
Bone stimulatory effect (in words) (male Sprague-Dawley rats [4]; listed as SEQ ID NO:2): stimulate bone growth
Group arithmetic mean of bone apposition rate (male Sprague-Dawley rats [4]): 1.28 μm/d
